According to patent US20240423904A1, “Systems and Methods for Controlling Chemical Reactions Using Ultrasound” (priority 2023, published 2024):

Key:
[1] = Stability of free CPT upon exposure to FUS, HPLC; assay type: physicochemical; conditions: FUS 10 min, presence or absence of GVs (1.4 nM)
Procedure: Experiments were performed in duplicate on a sample of CPT in water (˜3 μM). After insonation, samples were diluted 3:1 with a stock solution of IS (40 μM) and concentrations were determined from integration of the peak corresponding to CPT relative to that of the internal standard and scaled by 4/3 to account for dilution.

Raji cells = assay: MTT cell viability assay on Raji cells; assay type: cell-based; conditions: Homo sapiens, 48 h, pure CPT, 2 days at 37° C.
Procedure: Raji cells were incubated in RPMI 1640 media with 10% fetal bovine serum and 1% antibacterial Penicillin/Streptomycin (PenStrep) at 37° C. and 5% CO2. An MTT colorimetric assay was used to quantify cell viability.
Raji cells were used to evaluate the effectiveness of CPT release for potential chemotherapy. Raji cells were incubated in RPMI 1640 media, with 10% fetal bovine serum and 1% antibacterial Penicillin/Streptomycin (PenStrep) at 37° C. and 5% CO2. The instructions provided by the manufacturer (Abcam) were followed to perform the MTT assay. Approximately 10,000 Raji cells suspended in 150 μL of media were seeded into each well of a 96-well plate. Subsequently, 50 μL of polymer sample (or pure CPT) at varying concentrations was added to corresponding wells. For calibration purposes, wells without cells and wells with only cells and media were also prepared, representing 0% and 100% cell viability, respectively. After 48 hours of incubation, cells were spun down inside the plate and media were carefully aspirated. Then 50 μL of serum free media and 50 μL of MTT solution were added to each well. Following a 3 h incubation, 150 μL MTT solution was added to each well. […] The absorbance at 590 nm was measured by a microplate reader (TECAN Spark) to quantify the cell viability in each well. Cell viability is calculated using eq.

[2] = Thermally activated release of camptothecin from mechanophore bis-initiator, 1H NMR and LCMS; assay type: physicochemical; conditions: 24 h at 100° C. in toluene-d8, then diluted into 3:1 acetonitrile/methanol
Procedure: Several embodiments provide confirmation of CPT release via ^1H NMR spectroscopy and LCMS. Prior to mechanochemical activation studies, we first confirmed that camptothecin was released in polar protic solvent upon unmasking of the expected unstable furfuryl carbonate. To enable characterization, the furfuryl carbonate species was generated thermally from small molecule initiator 1-CPT. Masked furfuryl carbonate 1-CPT was dissolved in toluene-d8 and analyzed by ^1H NMR spectroscopy before and after heating for 24 h at 100° C. Comparison to spectrum of the expected maleimide fragment confirmed significant thermal retro-Diels-Alder reaction occurred under these conditions. A drop of this solution was then diluted into 3:1 acetonitrile/methanol and analyzed by LCMS (gradient of 0-50% acetonitrile/water over 4 minutes).

| Structure (SMILES) | stability upon exposure to FUS [1] | EC50 (Raji cells) | release of CPT after thermal retro-Diels-Alder reaction [2] |
| --- | --- | --- | --- |
| CC[C@@]1(O)C(=O)OCc2c1cc1n(c2=O)Cc2cc3ccccc3nc2-1 [CPT, camptothecin] | stable | ~25 nM |  |
| CC[C@@]1(OC(=O)OC(C)[C@]23O[C@](COC(=O)C(C)(C)Br)(C=C2Oc2ccccc2)[C@@H]2C(=O)N(CCOC(=O)C(C)(C)Br)C(=O)[C@@H]23)C(=O)OCc2c1cc1n(c2=O)Cc2cc3ccccc3nc2-1 (stereo partly drawn) [1-CPT, ((3aR,4R,7S,7aS)-2-(2-((2-bromo-2-methylpropanoyl)oxy)ethyl)-7-(1-(((((S)-4-ethyl-3,14-dioxo-3,4,12,14-tetrahydro-1H-pyrano[3′,4′:6,7]indolizino[1,2-b]quinolin-4-yl)oxy)carbonyl)oxy)ethyl)-1,3-dioxo-6-phenoxy-1,2,3,3a,7,7a-hexahydro-4H-4,7-epoxyisoindol-4-yl)methyl 2-bromo-2-methylpropanoatebromo-2-methylpropanoate] |  |  | CPT is released |
